Tests used:
[1] = tested on: MIA PaCa-2 cells; test: Cell Viability Assay, MIA PaCa-2; type: cell-based; conditions: human pancreatic carcinoma, CellTiter-Glo
Experimental: (§1) MIA PaCa-2 (human pancreatic carcinoma; ATCC CRL-1420) or A549 (human lung carcinoma; ATCC CCL-185) cells were cultured in RPMI 1640 medium containing 10% fetal bovine serum and 1×penicillin/streptomycin/L-glutamine. Cells were seeded in 384-well plates at a density of 1.67E+04 cells/mL and incubated at 37° C., 5% CO2, overnight. Serially-diluted compound or DMSO was added to the cells, and plates were incubated at 37° C., 5% CO2 for 72 h. Cell viability was measured using a CellTiter-Glo® Luminescent Cell Viability Assay kit (Promega) according to the manufacturer's protocol. The luminescence signal of treated samples was normalized to DMSO control, and data were analyzed using a 4-parameter logistic model to calculate IC50 values.
(§2) The following data (Table 3) categorizes the IC50 of each compound for inhibiting enzymatic activity of KRAS^G12C in the indicated cells.

[2] = tested on: A549 cells; test: Cell Viability Assay, A549; type: cell-based; conditions: human lung carcinoma, 72 h, CellTiter-Glo
Experimental: as §1, §2

[3] = target: KRAS^G12C (Homo sapiens, UniProt P01116, C118A/G12C); test: Coupled Nucleotide Exchange Assay; type: biochemical; conditions: GDP-bound KRAS (aa 1-169) G12C/C118A; 2 h compound pre-incubation; SOS-mediated exchange, 30 min; cRAF binding (AlphaLISA)
Sequence of KRAS^G12C (P01116 1-169 isoform P01116-2 G12C/C118A): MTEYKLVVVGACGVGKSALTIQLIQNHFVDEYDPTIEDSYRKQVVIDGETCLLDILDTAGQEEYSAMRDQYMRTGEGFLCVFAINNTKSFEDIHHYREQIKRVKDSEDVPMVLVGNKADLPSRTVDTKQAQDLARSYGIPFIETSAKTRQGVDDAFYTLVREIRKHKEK
Experimental: The KRAS^G12C coupled nucleotide exchange assay allows for the screening and profiling of KRAS^G12C antagonists/inhibitors by monitoring the binding of an effector protein (e.g., a Ras binding domain of Raf1, RBD-cRaf) to KRAS^G12C. Purified GDP-bound KRAS protein (aa 1-169), containing both G12C and C118A amino acid substitutions and an N-terminal His-tag, was pre-incubated in assay buffer (25 mM HEPES pH 7.4, 10 mM MgCl2, 0.01% Triton X-100, either with or without 0.1% BSA) with serially diluted compound for 2 h. For all subsequent steps, BSA was omitted and DTT was added to the reaction buffer at a final concentration of 1 mM. Following compound pre-incubation, purified SOS protein (aa 564-1049) and GTP (Roche 10106399001) were added to the assay wells and incubated for an additional 30 min. To determine the extent of inhibition of SOS-mediated nucleotide exchange, purified GST-tagged cRAF (aa 1-149), nickel chelate AlphaLISA acceptor beads (PerkinElmer AL108R), and AlphaScreen glutathione donor beads (PerkinElmer 6765302) were added to the assay wells and incubated for 5-30 min. The assay plates were then read on a plate reader measuring luminescence signal. Signal intensity of compound-containing wells were normalized to DMSO control, and data were analyzed using a 4-parameter logistic model to calculate IC50 values.

| SMILES | IC50 ([1]; Homo sapiens, MIA PaCa-2, 72 h) | IC50 ([2]; A549) | IC50 [3] | IC50 ([1]; 72 h) | IC50 [2] |
| --- | --- | --- | --- | --- | --- |
| C=CC(=O)N1CCN([C@@H]2CN(c3cc(N4CC[C@]5(C[C@H]4C)OC[C@H](CO)n4ncc(C)c45)nc(C(F)(F)F)n3)[C@@H]2C)CC1 (single isomer, unassigned) [Compound 3-087-2] | 0.142 µM | > 5 µM | 0.087 µM | – | – |
| C=CC(=O)N1CCN(C2CN(c3cc(N4CCC5(CC4)OC(C)C=C5C)nc(C(F)(F)F)c3C#N)C2)CC1 (single isomer, unassigned) [Compound 3-054-1] | – | > 5 µM | 0.128 µM | 0.603 µM | – |
| C=CC(=O)N1CCN(C2CN(c3cc(N4CCC5(CCCO5)CC4)nc(C(F)(F)F)c3C#N)C2)CC1 [Compound 3-039, 4-(3-(4-acryloylpiperazin-1-yl)azetidin-1-yl)-6-(1-oxa-8-azaspiro[4.5]decan-8-yl)-2-(trifluoromethyl)nicotinonitrile] | 2.41 µM | > 5 µM | 1.65 µM | – | – |
| C=CC(=O)N1CCN([C@@H]2CN(c3cc(N4CCC5(CC4)OCCC5=C)nc(C(F)(F)F)n3)[C@@H]2C)CC1 [Compound 3-074, 1-(4-((2R,3R)-2-Methyl-1-(6-(4-methylene-1-oxa-8-azaspiro[4.5]decan8-yl)-2-(trifluoromethyl)pyrimidin-4-yl)azetidin-3-yl)piperazin-1-yl) prop-2-en-1-one] | 1.16 µM | > 5 µM | 0.423 µM | – | – |
| C=CC(=O)N1CCN([C@@H]2CN(c3cc(N4CC[C@]5(C[C@H]4C)OCCn4ncc(C)c45)nc(C(F)(F)F)n3)[C@@H]2C)CC1 [Compound 3-077, 1-(4-((2R,3R)-1-(6-((2R,4R)-2,3′-dimethyl-6′,7′-dihydro-1H-spiro[piperidine-4,4′-pyrazolo[5,1-c][1,4]oxazin]-1-yl)-2-(trifluoromethyl)-4-pyrimidinyl)-2-methyl-3-azetidinyl)-1-piperazinyl)-2-propen-1-one] | 0.182 µM | > 5 µM | 0.021 µM | – | – |
| C=CC(=O)N1CCN([C@@H]2CN(c3cc(N4CCC5(CC4)OCC(CF)n4ncc(C)c45)nc(C(F)(F)F)n3)[C@@H]2C)CC1 (stereo partly drawn) [Compound 3-083, 1-(4-((2R,3R)-1-(6-(7′-(fluoromethyl)-3′-methyl-6′,7′-dihydrospiro[piperidine-4,4′-pyrazolo[5,1-c][1,4]oxazin]-1-yl)-2-(trifluoromethyl)pyrimidin-4-yl)-2-methylazetidin-3-yl)piperazin-1-yl)prop-2-en-1-one] | 0.171 µM | > 5 µM | 0.075 µM | – | – |
| C=CC(=O)N1CCN(C2CN(c3cc(N4CCC5(CC4)OCc4cnccc45)nc(C(F)(F)F)c3C#N)C2)CC1 [Compound 3-043] | 1.29 µM | > 5 µM | 1.59 µM | – | – |
| C=CC(=O)N1CCN([C@@H]2CN(c3cc(N4CCC5(CC4)OCC(CO)n4ncc(C)c45)nc(C(F)(F)F)n3)[C@@H]2C)CC1 (stereo partly drawn) [Compound 3-081, 1-(4-((2R,3R)-1-(6-(7′-(hydroxymethyl)-3′-methyl-6′,7′-dihydrospiro[piperidine-4,4′-pyrazolo[5,1-c][1.4]oxazin]-1-yl)-2-(trifluoromethyl)pyrimidin-4-yl)-2-methylazetidin-3-yl)piperazin-1-yl)prop-2-en-1-one] | 0.131 µM | > 5 µM | 0.063 µM | – | – |
| C=CC(=O)N1CCN([C@@H]2CN(c3cc(N4CCC5(CC4)OCC=C5C)nc(C(F)(F)F)n3)[C@@H]2C)CC1 [Compound 3-061, 1-(4-((2R,3R)-2-Methyl-1-(6-(4-methyl-1-oxa-8-azaspiro[4.5]dec-3-en-8-yl)-2-(trifluoromethyl)pyrimidin-4-yl)azetidin-3-yl)piperazin-1-yl)prop-2-en-1-one] | 0.936 µM | > 5 µM | 0.184 µM | – | – |
| C=CC(=O)N1CCN(C2CN(c3cc(N4CCC5(CCC(=O)N5)CC4)nc(C(F)(F)F)c3C#N)C2)CC1 [Compound 3-016] | > 5 µM | > 5 µM | 0.969 µM | – | – |
| C=CC(=O)N1CCN([C@@H]2CN(c3cc(N4CCC5(CC4)OC(C)(C)c4nccc(C)c45)nc(C(F)F)n3)[C@@H]2C)CC1 [Compound 3-096, 1-(4-((2R,3R)-1-(2-(difluoromethyl)-6-(4,7,7-trimethyl-1′H,7H-spiro[furo[3,4-b]pyridine-5,4′-piperidin]-1′-yl)-4-pyrimidinyl)-2-methyl-3-azetidinyl)-1-piperazinyl)-2-propen-1-one] | 0.267 µM | > 5 µM | 0.069 µM | – | – |
| C=CC(=O)N1CCN(C2CN(c3cc(N4CCC5(CC4)OCc4ccccc45)nc(C(F)(F)F)c3C#N)C2)CC1 [Compound 3-028, 4-(3-(4-acryloylpiperazin-1-yl)azetidin-1-yl)-6-(3H-spiro[isobenzofuran-1,4′-piperidin]-1′-yl)-2-(trifluoromethyl)nicotinonitrile] | 1.34 µM | > 3.33 µM | 1.79 µM | – | – |
| C=CC(=O)N1CCN(C2CN(c3cc(N4CCC5(C=CCO5)CC4)nc(C(F)(F)F)c3C#N)C2)CC1 [Compound 3-059, 4-(3-(4-Acryloylpiperazin-1-yl)azetidin-1-yl)-6-(1-oxa-8-azaspiro[4.5]dec-3-en-8-yl)-2-(trifluoromethyl)nicotinonitrile] | 0.582 µM | > 5 µM | 0.215 µM | – | – |
| C=CC(=O)N1CCN(C2CN(c3cc(N4CCC5(CC4)OC(C)C=C5C)nc(C(F)(F)F)c3C#N)C2)CC1 (single isomer, unassigned) [Compound 3-054-2] | – | – | 0.381 µM | 1.49 µM | > 5 µM |
| C=CC(=O)N1CCN([C@@H]2CN(c3cc(N4CCC5(CC4)OCCC=C5C)nc(C(F)(F)F)n3)[C@@H]2C)CC1 [Compound 3-008, 1-(4-((2R.3R)-2-methyl-1-(6-(5-methyl-1-oxa-9-azaspiro[5.5]undec-4-en-9-yl)-2-(trifluorometh-yl)pyrimidin-4-yl)azetidin-3-yl)-piperazin-1-yl)prop-2-en-1-one] | 0.625 µM | – | 0.275 µM | – | – |
| C=CC(=O)N1CCN([C@@H]2CN(c3cc(N4CCC5(CC4)OCCc4nccc(C)c45)nc(C(F)(F)F)n3)[C@@H]2C)CC1 [Compound 3-085, 1-(4-((2R,3R)-2-methyl-1-(6-(4′-methyl-7′,8′-dihydrospiro[piperidine-4,5′-pyrano[4,3-b]pyridin]-1-yl)-2-(trifluoromethyl)pyrimidin-4-yl)azetidin-3-yl)piperazin-1-yl)prop-2-en-1-one] | – | – | – | 0.18 µM | > 5 µM |
| C=CC(=O)N1CCN(C2CN(c3cc(N4CCC5(CC4)OCCc4ccsc45)nc(C(F)(F)F)n3)C2)CC1 [Compound 3-064, 1-(4-(1-(6-(4′,5′-dihydrospiro[piperidine-4,7′-thieno[2,3-c]pyran]-1-yl)-2-(trifluoromethyl)pyrimidin-4-yl)azetidin-3-yl)piperazin-1-yl)prop-2-en-1-one] | – | – | 5.7 µM | – | – |
| C=CC(=O)N1CCN(C2CN(c3cc(N4CCC5(CC4)COC5)nc(C(F)(F)F)c3C#N)C2)CC1 [Compound 3-019, 4-(3-(4-acryloylpiperazin-1-yl)-azetidin-1-yl)-6-(2-oxa-7-azaspiro [3.5]nonan-7-yl)-2-(trifluorometh-yl)nicotinonitrile] | – | – | 4.4 µM | – | – |
| C=CC(=O)N1CCN([C@@H]2CN(c3cc(N4CCC5(CC4)C(C)=CCN5C)nc(C(F)(F)F)n3)[C@@H]2C)CC1 [Compound 3-055, 1-(4-((2R,3R)-1-(6-(1,4-Dimethyl-1,8-diazaspiro[4.5]dec-3-en-8-yl)-2-(trifluoromethyl)pyrimidin-4-yl)-2-methylazetidin-3-yl)piperazin-1-yl)prop-2-en1-one] | – | – | 1.32 µM | – | – |

Reference: US20260327243A1, “SPIRO-HETEROCYCLIC INHIBITORS OF KRAS G12C MUTANT PROTEINS AND USES THEREOF” (AMGEN INC., priority 2023, published 2026)
